In assay [1] the test system is Staphylococcus aureus (#25923). Briefly: In vitro disc diffusion assay, ZOI (Example 3). Type of assay: cell-based. As to conditions: 6 mm diameter discs; for Zone of Inhibition: Staphylococcus aureus; for ZOI: S. aureus. How it is done: (§1) Sterile assay discs (6 mm diameter) were obtained from VWR Whatman and antibiotic assay discs (6 mm diameter) containing getamicin (10 μg/disc) and the combination drug sulfamethoxazole 23.75 μg/disc and trimethoprim 1.25 μg/disc were obtained from Becton, Dickinson and Company (USA). Dimethyl sulfoxide (DMSO) for microbial experiments was BioReagent™ grade and was purchased from Sigma-Aldrich. The nutrient broth and Müller-Hinton agar was purchased from Becton, Dickinson and Company (USA). Bacillus cereus, Pseudomonas aeruginosa (#27853), Klebsiella pneumonia (#13883), Proteus vulgaris (#13315), Staphylococcus aureus (#25923) and Escherichia coli (#25922) strains were obtained from the American Type Culture Collection (ATCC). All materials in contact with antimicrobial matter was treated for 40 min at 121° C. and 20 psi in a biohazard autoclave bag prior to waste disposing or washing. McFarland turbity standards containing barium sulfate were obtained from bioMérieux.
(§2) The growth medium was prepared by addition of Müller-Hinton agar (38 g) to 1 L distilled water under vigorous stirring and boiled for 10 min until complete dissolution. After cooling to 25° C., the pH value of the medium was 7.3±0.1. The medium was sterilized in an autoclave at 121° C. for 15 min at 20 psi, cooled to 45-50° C. and dispended into sterile Petri dishes on a leveled, horizontal surface to give uniform depth. Stock solutions of the microorganisms were incubated at 37° C. for 24 h and the turbidity of the microbial colonies were adjusted visually with sterile saline (0.85% w/v NaCl) to 0.5 McFarland standards. Within 15 min after adjusting the turbidity of the suspensions, the Petri dishes were inoculated using sterile cotton buds. The prepared antibiotic assay discs were placed on the surface of the seeded Müller-Hinton agar using flame sterilized forceps.
(§3) Stock solutions of compounds and the Cu complexed compounds were made in DMSO and were micropipetted onto the discs for 25 to 200 μg compound/disc. The discs were dried at ambient temperature for 30-50 min before placement onto the seeded Petri dishes which were then incubated at 37° C. for 24 h. Averaged inhibition zone measurements (mm) have an accuracy of ±0.5 mm; adjacent overlapping ZOI were determined using radii measurements.
Background: Agar diffusion results depend on both activity and mobility in agar.

Assay [2] deals with Bacillus cereus. Briefly: In vitro disc diffusion assay, ZOI (Example 3). Type of assay: cell-based. The conditions noted are these: 6 mm diameter discs; for Zone of Inhibition: Bacillus cereus; for ZOI: B. cereus. As to the method: as §1, §2, §3
The test system of assay [3] is S. aureus. Briefly: Disc diffusion zone of inhibition (Example 2). Type of assay: cell-based, Staphylococcus aureus. The conditions noted are these: Staphylococcus aureus. As to the method:
as §2, with “turbidity of these microbial colony” for “turbidity of the microbial colonies”, “these microbial colony were adjusted” for “the microbial colonies were adjusted”, “0.5 McFarland standards (bioMerieux, SA (France) they are made from barium sulfate (BaSO4). Within 15” for “0.5 McFarland standards. Within 15”
(§4) Stock solutions of compounds of Formula I, Ia, Ib and Formula II, IIa, pharmaceutically acceptable salts thereof, and metal complexes thereof were made in DMSO and were micropipetted onto the discs for 25 to 200 μg/disc. The discs were dried at ambient temperature for 30-50 min before placement onto the seeded Petri dishes which were then incubated at 37° C. for 24 h. Averaged inhibition zone diameters measurements (mm) have an accuracy of ±0.5 mm; adjacent overlapping ZOI were determined using radii measurements. Antibiotic disc like (sulfamethoxazole 23.75 μg trimethoprim 1.25 μg)/disc, Gentamicin 10 μg/disc and DMSO were used as positive and negative standards (control).
(§5) Antimicrobial test was carried out to evaluate the efficacy of compounds of Formula I, Ia, Ib and Formula II, IIa, pharmaceutically acceptable salts thereof, and metal complexes thereof, as well as control tests with control compounds, against six major pathogenic bacteria namely Bacillus cereus, Pseudomonas aeruginosa, Klebsiella pneumonia, Proteus vulgaris, Staphylococcus aureus and Escherichia coli.

The nature of assay [4]: DPPH antioxidant activity test. The conditions noted are these: 50 μg compound in 3 mL methanol; DPPH 150 μL 1 mM; 30 min, 25 °C; absorbance 517 nm. How it is done:
In addition to antibacterial properties, antioxidant activity was assessed in the compounds of Formula I and II and metal complexes thereof as antioxidant compounds play an important role in remediating the toxic effects of reactive oxygen species and other free radicals. The main characteristic of an antioxidant compound is its ability to trap free radicals. Highly reactive free radicals and oxygen species are present in biological systems from a wide variety of sources. Free radical damage is known to occur during bacterial and other microbial infections. Free radicals are produced by cells of the immune system during an active infection, and generally as a result of the inflammatory processes.
DPPH (2,2-diphenyl-1-picryl-hydrazyl, 150 μL, 1 mM solution in methanol) was added to 3 mL methanol in a cuvette (0.5 in diameter) and UV-vis absorption recorded at 517 nm for baseline reading. In a cuvette, DPPH (150 μL, 1 mM solution in methanol) was added to a solution containing compound in 3 mL methanol. The reaction was allowed to stir at 25±1° C. for 30 min under exclusion of light. Absorbance was recorded at 517 nm against reference cuvette filled with methanol.
On the technique in general: Loss of DPPH colour is used to gauge radical scavenging.

Assay [5] deals with B. cereus. In words: Disc diffusion zone of inhibition (Example 2). Type of assay: cell-based, Bacillus cereus. As to conditions: Bacillus cereus; for zone of inhibition at 200 µg/disc: 200 μg/disc. As to the method:
as §2, with “turbidity of these microbial colony” for “turbidity of the microbial colonies”, “these microbial colony were adjusted” for “the microbial colonies were adjusted”, “0.5 McFarland standards (bioMerieux, SA (France) they are made from barium sulfate (BaSO4). Within 15” for “0.5 McFarland standards. Within 15”
as §4, §5

The test system of assay [6] is P. aeruginosa. In words: Disc diffusion zone of inhibition (Example 2). Type of assay: cell-based, Pseudomonas aeruginosa. As to conditions: Pseudomonas aeruginosa, 200 μg/disc. As to the method: as §2, with “turbidity of these microbial colony” for “turbidity of the microbial colonies”, “these microbial colony were adjusted” for “the microbial colonies were adjusted”, “0.5 McFarland standards (bioMerieux, SA (France) they are made from barium sulfate (BaSO4). Within 15” for “0.5 McFarland standards. Within 15”
as §4, §5

The test system of assay [7] is K. pnemonia. In words: Disc diffusion zone of inhibition (Example 2). Type of assay: cell-based, Klebsiella pneumonia. As to conditions: Klebsiella pneumoniae, 200 μg/disc. As to the method:
as §2, with “turbidity of these microbial colony” for “turbidity of the microbial colonies”, “these microbial colony were adjusted” for “the microbial colonies were adjusted”, “0.5 McFarland standards (bioMerieux, SA (France) they are made from barium sulfate (BaSO4). Within 15” for “0.5 McFarland standards. Within 15”
as §4, §5

Assay [8] concerns E. coli. In words: Disc diffusion zone of inhibition (Example 2). As to conditions: Escherichia coli, 200 μg/disc. Type of assay: cell-based, Escherichia coli. As to the method:
as §2, with “turbidity of these microbial colony” for “turbidity of the microbial colonies”, “these microbial colony were adjusted” for “the microbial colonies were adjusted”, “0.5 McFarland standards (bioMerieux, SA (France) they are made from barium sulfate (BaSO4). Within 15” for “0.5 McFarland standards. Within 15”
as §4, §5

Assay [9] has as its system P. vulgaris. In words: Disc diffusion zone of inhibition (Example 2). Type of assay: cell-based, Proteus vulgaris. As to conditions: Proteus vulgaris, 200 μg/disc. As to the method:
as §2, with “turbidity of these microbial colony” for “turbidity of the microbial colonies”, “these microbial colony were adjusted” for “the microbial colonies were adjusted”, “0.5 McFarland standards (bioMerieux, SA (France) they are made from barium sulfate (BaSO4). Within 15” for “0.5 McFarland standards. Within 15”
as §4, §5

Setting [10] is: S. aureus, 200 μg/disc, read-out: Zone of inhibition.

One may read the zone of inhibition as the size of the clear area around the sample on an inoculated plate.

Read-outs that look alike come from different tables or passages of the source.

Take “2-(methylthio)-N-(2-pyridylmethylene)-benzenamine copper (II) bromide [ECPP-145]”: the “Zone of Inhibition” value was 0 mm in assay [1] (6.25 μg Cu/disc); 1 mm in assay [1] (12.5 μg Cu/disc); 4 mm in assay [1] (25 μg Cu/disc); 0 mm in [2] (6.25 μg Cu/disc); 0 mm in assay [2] (12.5 μg Cu/disc); 0.5 mm in assay [2] (25 μg Cu/disc).
Consider `Nc1ccccc1SCc1ccc(CSc2ccccc2N)cc1` [α,α′-bis((o-aminophenyl)thio)-para-xylene], for which the zone of inhibition at 50 µg/disc amounted to 11 mm in [3] (S. aureus, 50 μg/disc) and 9 mm in assay [5] (50 μg/disc). The zone of inhibition at 100 µg/disc in [3] (S. aureus, 100 μg/disc) amounted to 13 mm; in assay [5] (100 μg/disc), 16 mm. The figures for the zone of inhibition at 200 µg/disc in assay [3] (setting [10]) and in [5] were 17 mm and 19 mm, respectively. For the same compound, the “% Antiox-Act” value in [4] turned out to be 65.4%.
On to `CC(=O)[O-].CC(=O)[O-].Nc1ccccc1SCc1ccccc1CSc1ccccc1N.[Cu+2]` [α,α′-bis((o-aminophenyl)thio)-ortho-xylene-copper (II) acetate], for which the “% Antiox-Act” value in assay [4] was determined as 63.5%.
As for “2-(methylthio)-N-(2-phenylmethylene)-benzenamine copper (II) bromide [ECPP-167]”, the “Zone of Inhibition” value in [1] (6.25 μg Cu/disc) was 4 mm; in assay [1] (12.5 μg Cu/disc), 5 mm; in assay [1] (25 μg Cu/disc), 9 mm; in assay [2] (6.25 μg Cu/disc) it was 0 mm; in assay [2] (12.5 μg Cu/disc), 1 mm; in assay [2] (25 μg Cu/disc) it was 2 mm.
As for `C(=N\c1ccccc1SCc1ccccc1CSc1ccccc1/N=C/c1ccccn1)/c1ccccn1` [Compound L4], the ZOI in assay [1] (200 μg/disc) and in assay [2] (200 μg/disc) was 0.5 mm throughout.
For the compound `Nc1ccccc1SCc1ccccc1CSc1ccccc1N.[Cl][Cu][Cl]` [α,α′-bis((o-aminophenyl)thio)-ortho-xylene-copper (II) chloride], the “% Antiox-Act” value in assay [4] was 56.1%.
Consider “2-(methylthio)-N-(2-thienylmethylene)-benzenamine copper (II) bromide [ECPP-129]”, for which the “Zone of Inhibition” value in [1] (6.25 μg Cu/disc) is reported as 5 mm; in [1] (12.5 μg Cu/disc), 7 mm; in [1] (25 μg Cu/disc), 10 mm; in assay [2] (6.25 μg Cu/disc), 0 mm; in [2] (12.5 μg Cu/disc), 0.5 mm; in [2] (25 μg Cu/disc), 9 mm.
With `O=Cc1ccncc1` [4-pyridine carboxaldehyde], the zone of inhibition at 200 µg/disc was determined as 27 mm in assay [6]; 30 mm in assay [3] (setting [10]); 26 mm in assay [7]; 25 mm in assay [8]; 25 mm in assay [9]; 29 mm in assay [5].
Consider `O=Cc1cccnc1` [3-pyridine carboxaldehyde], for which the zone of inhibition at 200 µg/disc in assay [6] came to 23 mm; in [3] (setting [10]), 32 mm; in assay [7], 22 mm; in [8], 24 mm; in [9], 21 mm; in assay [5] it was 27 mm.
On to `C(=N\c1ccccc1SCc1ccccc1)/c1ccccn1` [N-(2-pyridinylmethylidene) S-benzyl-ortho-aminothiophenol], for which the zone of inhibition at 75 µg/disc in assay [3] (S. aureus, 75 μg/disc) is 11 mm; in assay [5] (75 μg/disc), 7 mm. Further, the “% Antiox-Act” value in [4] is 65.8%.
Turning to “2-(methylthio)-N-(2-pyridylmethylene)-benzenamine copper (I) bromide [ECPP-141]”, the “Zone of Inhibition” value is on record as 0.5 mm in assay [1] (6.25 μg Cu/disc); 2 mm in [1] (12.5 μg Cu/disc); 5 mm in assay [1] (25 μg Cu/disc); 0 mm in [2] (6.25 μg Cu/disc); 0 mm in assay [2] (12.5 μg Cu/disc); 2 mm in assay [2] (25 μg Cu/disc).
Regarding `Nc1ccccc1SCc1ccccc1CSc1ccccc1N` [Compound L2], the ZOI in assay [1] (200 μg/disc) was determined as 1.5 mm; in [2] (200 μg/disc), 2 mm.
With “2-(methylthio)-N-(2-pyridylmethylene)-benzenamine copper (I) iodide [ECPP-143]”, the “Zone of Inhibition” value in assay [1] (6.25 μg Cu/disc) is reported as 0 mm; in assay [1] (12.5 μg Cu/disc), 0 mm; in assay [1] (25 μg Cu/disc), 1 mm.
As to `C(=N\c1ccccc1SCc1ccccc1)/c1ccccn1` [Compound L3], the ZOI in assay [1] (50 μg/disc) came to 0 mm; in assay [1] (75 μg/disc), 2.5 mm; in assay [2] (50 μg/disc), 0 mm; in assay [2] (75 μg/disc), 0.5 mm.
Consider `C(=N\c1ccccc1SCc1ccccc1CSc1ccccc1/N=C/c1ccccn1)/c1ccccn1` [Bis [N,N′-(2-pyridinyl methylidene)]α,α′-bis((o-aminophenyl)thio)-ortho-xylene], for which the zone of inhibition at 200 µg/disc in assay [3] (setting [10]) and in assay [5] was 7 mm throughout. In assay [4], the “% Antiox-Act” value is 61.3%.
On to `Nc1ccccc1SCc1ccccc1CSc1ccccc1N` [α,α′-bis((o-aminophenyl)thio)-ortho-xylene], for which the results for the zone of inhibition at 200 µg/disc in assay [3] and in [5] were 7 mm and 8 mm, respectively. In addition, the “% Antiox-Act” value in assay [4] stood at 60.8%.
On to `Nc1ccccc1SCc1ccc(CSc2ccccc2N)cc1` [Compound L1], for which the ZOI in assay [1] (50 μg/disc) was 2.5 mm; in assay [1] (100 μg/disc) it was 3.5 mm; in assay [1] (200 μg/disc), 5.5 mm; in [2] (50 μg/disc), 1.5 mm; in assay [2] (100 μg/disc), 5 mm; in assay [2] (200 μg/disc), 6.3 mm.
